This passage reports IC50, inhibition and selectivity ratio results from ChEMBL document CHEMBL2321724 (J Med Chem, 2013).

Data set [1] deals with T1, Voltage-gated inwardly rectifying potassium channel KCNH2 (Homo sapiens, UniProt Q12809). The data set is described as follows: Displacement of [3H]astemizole from human ERG K+ channel expressed in HEK293 cells by scintillation spectrophotometric analysis. In general terms: In a radioligand displacement assay an active substance lowers the binding of a labelled ligand.
T1 sequence (Q12809 whole entry): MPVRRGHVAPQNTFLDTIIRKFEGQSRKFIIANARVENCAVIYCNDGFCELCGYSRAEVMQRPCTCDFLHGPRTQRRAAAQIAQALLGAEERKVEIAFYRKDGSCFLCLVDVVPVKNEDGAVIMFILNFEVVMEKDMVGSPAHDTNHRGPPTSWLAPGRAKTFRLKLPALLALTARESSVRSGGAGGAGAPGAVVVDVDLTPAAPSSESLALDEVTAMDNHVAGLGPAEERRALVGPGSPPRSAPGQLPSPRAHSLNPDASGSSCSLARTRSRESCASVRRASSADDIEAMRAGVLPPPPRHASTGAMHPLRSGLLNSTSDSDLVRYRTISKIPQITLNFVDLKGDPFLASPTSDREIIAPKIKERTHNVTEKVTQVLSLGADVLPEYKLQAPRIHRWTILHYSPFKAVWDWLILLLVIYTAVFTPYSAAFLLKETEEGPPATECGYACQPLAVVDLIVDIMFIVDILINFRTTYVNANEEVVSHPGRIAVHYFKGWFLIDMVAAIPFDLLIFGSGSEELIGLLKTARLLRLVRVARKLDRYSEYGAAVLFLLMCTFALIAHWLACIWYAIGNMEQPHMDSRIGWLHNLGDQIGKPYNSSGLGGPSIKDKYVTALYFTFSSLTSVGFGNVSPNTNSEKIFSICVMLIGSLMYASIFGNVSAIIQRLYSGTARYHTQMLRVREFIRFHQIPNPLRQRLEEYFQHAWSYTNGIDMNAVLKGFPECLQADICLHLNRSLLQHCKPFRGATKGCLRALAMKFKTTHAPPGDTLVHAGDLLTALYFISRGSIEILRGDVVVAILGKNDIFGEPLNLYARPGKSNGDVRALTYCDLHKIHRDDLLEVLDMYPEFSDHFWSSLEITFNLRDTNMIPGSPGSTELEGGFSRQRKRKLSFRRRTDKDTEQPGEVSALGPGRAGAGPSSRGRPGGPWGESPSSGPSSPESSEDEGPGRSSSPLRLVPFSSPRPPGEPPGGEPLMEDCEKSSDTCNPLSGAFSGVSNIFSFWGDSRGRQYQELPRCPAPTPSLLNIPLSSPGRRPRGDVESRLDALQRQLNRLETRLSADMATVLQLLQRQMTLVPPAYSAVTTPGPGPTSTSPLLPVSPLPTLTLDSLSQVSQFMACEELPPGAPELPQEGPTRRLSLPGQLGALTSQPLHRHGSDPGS

Data set [2] has as its target T2, hERG (KCNH2) K+ channel (Homo sapiens, UniProt Q12809). The data set is described as follows: Displacement of [3H]astemizole from human ERG K+ channel expressed in HEK293 cells at 10 uM by scintillation spectrophotometric analysis.
The target of data set [3] is T1, Voltage-gated inwardly rectifying potassium channel KCNH2. The data set is described as follows: Inhibition of human ERG K+ channel expressed in HEK293 cells after 15 mins by patch clamp assay. Type of data set: cell-based. Background: In patch-clamp work, channel activity is measured electrically.
Data set [4] has as its target T2, hERG (KCNH2) K+ channel. The data set is described as follows: Assay index, ratio of IC50 for human ERG K+ channel expressed in HEK293 cells by patch clamp assay to IC50 for human ERG K+ channel expressed in HEK293 cells by radioligand binding assay. The settings on record: HEK293 cells expressing human ERG K+ channel, read-out: Ratio IC50. The data set is classed as cell-based.

The mark [5] stands for this setting: HEK293 cells expressing human ERG K+ channel, probe [3H]astemizole.

T2 sequence (Q12809 whole entry): as above

`Cc1ccc(CCc2cccc(CCc3ccc(C)cc3)n2)cc1`: the half-inhibitory concentration (IC50) in data set [1] (human, hek293) was > 10000 nM. Turning to `C[n+]1c(C#CCOc2ccccc2Cl)cccc1C#CCOc1ccccc1Cl`, at hERG (KCNH2) K+ channel [2] (setting [5]), the inhibition at 10 µM worked out at 16%. `C[n+]1c(CCCOc2ccccc2)cccc1CCCOc1ccccc1` yielded an IC50 in data set [1] of 208 nM.

For `c1ccc(OCc2cccc(COc3ccccc3)n2)cc1`, the inhibition at 10 µM at hERG (KCNH2) K+ channel [2] (hek293) was 15%.

In data set [1], `C[n+]1c(COc2ccccc2)cccc1COc1ccccc1` registered an IC50 of 767 nM. Regarding `C(#Cc1cccc(C#Cc2ccccc2)n1)c1ccccc1`, at hERG (KCNH2) K+ channel [2] (setting [5]), the inhibition at 10 µM was -11%. `c1ccc(CCc2cccc(CCc3ccccc3)n2)cc1` showed an IC50 in data set [1] of 1610 nM. In the case of `c1ccc(CCc2cccc(CCc3ccccc3)c2)cc1`, the inhibition at 10 µM on hERG (KCNH2) K+ channel [2] (setting [5]) worked out at 8%. On to `Cc1ccc(OCCCc2cc(N)cc(CCCOc3ccc(C)cc3)n2)cc1`, for which the concentration for half-maximal inhibition (IC50) turned out to be 146 nM in data set [3] and 170 nM in data set [1]. In addition, at hERG (KCNH2) K+ channel [4], the selectivity ratio was determined as 0.86.

`Cc1ccc(Cc2cccc(COc3ccc(C)cc3)n2)cc1`: the inhibition at 10 µM on hERG (KCNH2) K+ channel [2] (hek293) was 9%. For `Cc1ccc(Cc2ccnc(COc3ccc(C)cc3)c2)cc1`, the half-inhibitory concentration (IC50) in data set [1] is > 10000 nM. On hERG (KCNH2) K+ channel [2] (setting [5]), the inhibition at 10 µM was -3%. For `Cc1ccc(COCc2cccc(COCc3ccc(C)cc3)[n+]2C)cc1`, the IC50 in data set [1] was determined as 107 nM. Still for that read-out and setting: as for `Cc1ccc(CCOCc2cccc(COCCc3ccc(C)cc3)[n+]2C)cc1`, the figure is 135 nM. On to `Cc1ccc(CCCOCc2cccc(COCCCc3ccc(C)cc3)[n+]2C)cc1`, for which the IC50 in data set [3] worked out at 194 nM; in data set [1], 24 nM. Moreover, the selectivity ratio on hERG (KCNH2) K+ channel [4] amounted to 8.1.

The molecule `Cc1ccc(C#Cc2cccc(C#Cc3ccc(C)cc3)[n+]2C)cc1` came in with an IC50 in data set [1] of 285 nM. In the case of `Cc1ccc(OCCCc2cccc(CCCOc3ccc(C)cc3)[n+]2C)cc1`, the 50% inhibitory concentration (IC50) in data set [3] came out at 962 nM; in data set [1] it was 86 nM. Also, the selectivity ratio on hERG (KCNH2) K+ channel [4] came to 11.2.

In data set [1], `Cc1ccc(CCOCCCc2cccc(CCCOCCc3ccc(C)cc3)[n+]2C)cc1` showed a half-maximal inhibitory concentration (IC50) of 371 nM.

The molecule `CCCCCCC#Cc1cccc(C#CCCCCCC)[n+]1C` came in with an IC50 in data set [1] of 1990 nM. Still for that read-out and setting: then `C[n+]1c(C#Cc2ccc(-c3ccccc3)cc2)cccc1C#Cc1ccc(-c2ccccc2)cc1`, with 294 nM; and `C[n+]1c(C#Cc2cccc(Cl)c2)cccc1C#Cc1cccc(Cl)c1`, with 4020 nM. On the same count and under the same terms, as for `C[n+]1c(C#Cc2ccccc2Cl)cccc1C#Cc1ccccc1Cl`, the figure is 3900 nM.

What is called IC50 is the concentration at which inhibition is half-maximal. As a reminder, the inhibition is the relative decrease from the control value, in per cent.
